In article PMC11480233, “Structural insights into the Caprin-2 HR1 domain in canonical Wnt signaling” (The Journal of Biological Chemistry, 2024):

T1: hCap2_HR1 (HR1 domain of human Caprin-2) (Homo sapiens, UniProt Q6IMN6, R200E/R201E)
T1 construct: gene CAPRIN2; HR1 domain, aa S102-K351, E. coli BL21-CodonPlus-RIL, modified pET-28a with His tag and TEV site; His tag kept for lipid strip
T1 sequence (Q6IMN6 102-351 R200E/R201E): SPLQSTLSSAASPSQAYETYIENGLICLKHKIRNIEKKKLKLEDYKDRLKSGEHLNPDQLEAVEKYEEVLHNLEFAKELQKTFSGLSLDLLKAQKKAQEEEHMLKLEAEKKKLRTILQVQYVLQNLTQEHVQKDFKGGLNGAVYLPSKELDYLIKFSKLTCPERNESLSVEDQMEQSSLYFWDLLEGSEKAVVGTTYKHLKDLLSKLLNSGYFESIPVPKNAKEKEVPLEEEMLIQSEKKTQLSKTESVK

T2: hCap2_HR1 (HR1 domain of human Caprin-2) (Homo sapiens, UniProt Q6IMN6)
T2 construct: gene CAPRIN2; HR1 domain, aa S102-K351, E. coli BL21-CodonPlus-RIL, modified pET-28a with His tag and TEV site; His tag kept for lipid strip
T2 sequence (Q6IMN6 102-351): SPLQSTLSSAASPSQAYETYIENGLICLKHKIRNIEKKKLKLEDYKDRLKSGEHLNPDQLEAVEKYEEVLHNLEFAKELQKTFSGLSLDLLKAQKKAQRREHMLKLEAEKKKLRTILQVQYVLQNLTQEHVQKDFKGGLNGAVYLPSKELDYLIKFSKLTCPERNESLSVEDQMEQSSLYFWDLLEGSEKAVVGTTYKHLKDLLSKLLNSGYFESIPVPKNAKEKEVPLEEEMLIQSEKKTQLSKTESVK


Key:
[1] = biological target: T1, hCap2_HR1 (HR1 domain of human Caprin-2); assay: biolayer interferometry (Octet Red96); assay type: binding; conditions: labelled compound; biotinylated PI4P immobilised on streptavidin sensors; 20 mM Tris pH 7.5, 150 mM NaCl, 0.2 mM DTT, 0.05% Tween-20, 0.2 mg/ml BSA
[2] = biological target: T2, hCap2_HR1 (HR1 domain of human Caprin-2); assay: biolayer interferometry (Octet Red96); assay type: binding; conditions: labelled compound; biotinylated PI4P immobilised on streptavidin sensors; 20 mM Tris pH 7.5, 150 mM NaCl, 0.2 mM DTT, 0.05% Tween-20, 0.2 mg/ml BSA
[3] = biological target: the molecule itself; assay: SEC; Superdex 200 with a calibration curve; estimated MW 66.45 kDa against theoretical 29.2 kDa

Row | Molecule | Kd [1] [µM] | Kd [2] [µM] | stoichiometry N [3]
1 | biotinylated PI4P | 152 | 2 | 
2 | HR1 domain of human Caprin-2 (aa S102-K351) (domain or fragment, UniProt Q6IMN6 102-351, looked up, Caprin-2, human, HR1 domain construct, residues S102-K351, cloned from full-length human Caprin-2; Modified pET-28a vector with a TEV site in place of the thrombin site; A SeMet triple mutant I217M/L251M/L301M of the same limits was used for phasing; also called hCap2_HR1; Cap2_HR1) SPLQSTLSSAASPSQAYETYIENGLICLKHKIRNIEKKKLKLEDYKDRLKSGEHLNPDQLEAVEKYEEVLHNLEFAKELQKTFSGLSLDLLKAQKKAQRREHMLKLEAEKKKLRTILQVQYVLQNLTQEHVQKDFKGGLNGAVYLPSKELDYLIKFSKLTCPERNESLSVEDQMEQSSLYFWDLLEGSEKAVVGTTYKHLKDLLSKLLNSGYFESIPVPKNAKEKEVPLEEEMLIQSEKKTQLSKTESVK |  |  | 2
